Results as given in patent US12186312B2, “Sleep improving agent” (Amino Up Co., Ltd., priority 2016, dated 2025).

Experiments:
male Wistar rats = assay: Light period activity level after 8-hour phase advance (model of mild sleep disorder), dietary administration; format: in vivo, rat; conditions: for activity level of Day 1 and Day 2 during the light period compared with the Control group: Dunnett test with mixed model for repeated measures; for activity level on Day 1, light period (12 hours) after the phase advance compared with the Control group: Dunnett test
Description: Firstly, 7-week old male Wistar rats were implanted intraperitoneally with a small activity meter (NanoTag®, Kissei Comtech Co., Ltd.). Subsequently, after a week of recovery period, the rats were divided into four groups (Control group, Compound A-1 group, Compound A-2 group, and Compound A-3 group; n=17 each) shown in Table 1 by stratified randomization assignment using body weight as an index, and test diets were dietary administered to them. At the 15th day from the start of dietary administration, the light/dark cycle was advanced by 8 hours, and after that, dietary administration of test diets was continued for 2 weeks. The light/dark cycle of the breeding environment excluding the phase advance date was set to 12 hours cycle, and the illuminance of the light period was set to be approximately 200 1× (185-230 1×). In this model of mild sleep disorder with the phase advance, the influence of test feed administration on the light period activity level after the phase advance was examined.
The test was carried out by a two-sided test, the significance level of the test was set to 5%, and the trend difference was 10% on both sides. For the analysis, SAS software release 9.3 (manufactured by SAS Institute Japan Ltd.) was used.

[1] = system: HSP70 mRNA expression in human promyelocytic leukemia cells (HL-60 cells); assay: Evaluation of HSP70 mRNA expression-inducing activity in HL-60 cells; format: cell-based; conditions: for concentration at which HSP70 mRNA expression inducing ability was increased up to 150% relative to the control: 4 hours at 37° C., corrected with beta 2 microglobulin gene; for HSP70 mRNA expression as compared with the control: 4 hours, FIGS. 1-3, percentages for the control
Procedure: The HSP70 expression-inducing activity by Compounds 1-3 was evaluated by measuring a HSP70 mRNA expression level.
Human promyelocytic leukemia cells (HL-60 cells) was suspended in RPMI 1640 medium supplemented with 10% fetal bovine serum, and was transferred into a 1.5 mL tube (45,000 cells/0.9 mL). To the tube was added 0.1 mL of each sample that had been prepared in a 1% DMSO solution and the tube was allowed to stand at 37° C. for 4 hours. To a control was added 0.1 mL of 1% DMSO solution. After cultured for 4 hours, the cells was centrifuged by a small refrigerated centrifuge (1,000 g×5 minutes) to precipitate the HL-60 cells. After removal of the supernatant, the cells were lysed in 0.25 mL Trizol (manufactured by Thermo Fisher Scientific) and then total RNA was extracted according to the protocol. The RNA was dissolved in RNase-free water, and the concentration of the RNA (wave length 260 nm) was measured by using a microvolume spectrophotometer NanoDrop 2000/2000c (manufactured by Thermo Fisher Scientific). The RNA solution was diluted with RNase-free water so as to have a concentration of 50 ng/mL, and then cDNA was synthesized by using ReverTra Ace® qPCR RT Kit (manufactured by TOYOBO). The reaction liquid (10 μl) after the reverse transcription was diluted with RNase-free water so as to be 100 μL, and then used as a template for PCR. Beta 2 microglobulin gene was used as an internal control gene for correction of the HSP70 gene expression. The primer sequences of genes used for the PCR reaction are as follows.
The expression was analyzed by using CFX Connect Real-Time PCR Detection System (manufactured by Bio-rad). 10 μL of the PCR reaction liquid was incubated at 95° C. for 3 minutes (initial denaturation), followed by repetition of 55 cycles comprising denaturation at 95° C. for 10 seconds, and annealing and extension at 57.8° C. for 30 seconds. Finally, the melting curve was measured every 0.2° C. in the range from 65° C. to 95° C. Expression levels of HSP70 gene and internal standard gene were analyzed using Bio-Rad CFX Manager 3.1.

Compound: CC(C)C[C@@H]1NC(=O)[C@@H]2CCCN2C1=O [Compound 1, (3S,8aS)-3-isobutylhexahydropyrrolo[1,2-a]pyrazine-1,4-dione]
- activity level of Day 1 and Day 2 during the light period compared with the Control group (male Wistar rats; Compound A-2 group: MF containing 0.005% of Compound A (6.25 mg/kg BW/day), P=0.0481): significantly inhibited the activity level
- activity level on Day 1, light period (12 hours) after the phase advance compared with the Control group (male Wistar rats; Compound A-2 group: MF containing 0.005% of Compound A (6.25 mg/kg BW/day), P=0.016): significantly suppressed the activity level
- activity level of Day 1 and Day 2 during the light period compared with the Control group (male Wistar rats; Compound A-3 group: MF containing 0.05% of Compound A (62.46 mg/kg BW/day), P=0.0978): tendency to suppress the activity level
- activity level on Day 1, light period (12 hours) after the phase advance compared with the Control group (male Wistar rats; Compound A-3 group: MF containing 0.05% of Compound A (62.46 mg/kg BW/day), P=0.0536): tended to suppress the activity level
- concentration at which HSP70 mRNA expression inducing ability was increased up to 150% relative to the control [1]: 0.083 mg/mL
- HSP70 mRNA expression as compared with the control [1]: enhanced mRNA expression of HSP70 gene

Compound: O=C1N[C@@H](Cc2ccccc2)C(=O)N2CCC[C@@H]12 [Compound 2, (3S,8aS)-3-benzylhexahydropyrrolo[1,2-a]pyrazine-1,4-dione]
- concentration at which HSP70 mRNA expression inducing ability was increased up to 150% relative to the control [1]: 0.045 mg/mL
- HSP70 mRNA expression as compared with the control [1]: enhanced mRNA expression of HSP70 gene

Compound: O=C1N[C@@H](Cc2ccc(O)cc2)C(=O)N2CCC[C@@H]12 [Compound 3, (3S,8aS)-3-(4-hydroxybenzyl)hexahydropyrrolo[1,2-a]pyrazine-1,4-dione]
- concentration at which HSP70 mRNA expression inducing ability was increased up to 150% relative to the control [1]: 0.101 mg/mL
- HSP70 mRNA expression as compared with the control [1]: enhanced mRNA expression of HSP70 gene
